Laboratory results from ChEMBL document CHEMBL1208684 (Eur J Med Chem, 2010).
The source made the active and inactive calls. No cut-off for these calls is given here.

Tests used:
[1] = Cell cycle arrest in human KB/HeLa cells assessed as accumulation at G2/M phase after 24 hrs using propidium iodide staining by FACS analysis; assay type: functional, cell-based
K562 = assay: Antiproliferative activity against human K562 cells after 48 hrs; assay type: functional, cell-based; conditions: K562, 48 h
Tubulin = Tubulin (Sus scrofa, UniProt P02554+P02550); assay: Inhibition of pig brain tubulin polymerization after 30 mins by turbidimetry
RKO [2] = assay: Antiproliferative activity against human RKO cells expressing p27Kip1 after 48 hrs by XTT assay; assay type: functional, cell-based
[3] = Antiproliferative activity against human KB/HeLa cells after 48 hrs by XTT assay; assay type: functional, cell-based
PtK2 = assay: Disruption of microtubule network in rat kangaroo PtK2 cells at 5 uM after 1 hr by immunofluorescence microscopic analysis; assay type: functional, cell-based; conditions: Potorous tridactylus
RKO [4] = assay: Antiproliferative activity against human RKO cells after 48 hrs by XTT assay; assay type: functional, cell-based
P388 [5] = assay: Antiproliferative activity against mouse P388 cells after 48 hrs by XTT assay; assay type: functional, cell-based; conditions: P388, 48 h
[6] = Antiproliferative activity against rat LT12 cells after 48 hrs by XTT assay; assay type: functional, cell-based; conditions: LT12, 48 h
SF-268 = assay: Antiproliferative activity against human SF268 cells after 48 hrs by XTT assay; assay type: functional, cell-based; conditions: SF-268, 48 h
SK-OV-3 = assay: Antiproliferative activity against human SKOV3 cells after 48 hrs by XTT assay; assay type: functional, cell-based; conditions: SK-OV-3, 48 h
[7] = Antiproliferative activity against multi drug-resistant rat LT12 cells after 48 hrs by XTT assay; assay type: functional, cell-based; conditions: LT12, 48 h
NCI-H460 = assay: Antiproliferative activity against human NCI-H460 cells after 48 hrs by XTT assay; assay type: functional, cell-based; conditions: NCI-H460, 48 h
L1210 [8] = assay: Antiproliferative activity against mouse L1210 cells after 48 hrs by XTT assay; assay type: functional, cell-based; conditions: L1210, 48 h
[9] = Displacement of [3H]colchicine from biotin-labeled tubulin after 2 hrs by scintillation proximity assay
Tubulin (Sus scrofa) = Tubulin (Sus scrofa) (UniProt P02554+P02550); assay: Ratio of compound IC50 to colchicine IC50 for inhibition of pig brain tubulin polymerization
L1210 [10] = assay: Antiproliferative activity against vincristine-resistant mouse L1210 cells after 48 hrs by XTT assay; assay type: functional, cell-based; conditions: L1210, 48 h
P388 [11] = assay: Antiproliferative activity against adriamycin-resistant mouse P388 cells after 48 hrs by XTT assay; assay type: functional, cell-based; conditions: P388, 48 h
[12] = Displacement of [3H]paclitaxel from biotin-labeled tubulin after 2 hrs by scintillation proximity assay

Chain of Tubulin (Sus scrofa) (P02550 whole entry, looked up): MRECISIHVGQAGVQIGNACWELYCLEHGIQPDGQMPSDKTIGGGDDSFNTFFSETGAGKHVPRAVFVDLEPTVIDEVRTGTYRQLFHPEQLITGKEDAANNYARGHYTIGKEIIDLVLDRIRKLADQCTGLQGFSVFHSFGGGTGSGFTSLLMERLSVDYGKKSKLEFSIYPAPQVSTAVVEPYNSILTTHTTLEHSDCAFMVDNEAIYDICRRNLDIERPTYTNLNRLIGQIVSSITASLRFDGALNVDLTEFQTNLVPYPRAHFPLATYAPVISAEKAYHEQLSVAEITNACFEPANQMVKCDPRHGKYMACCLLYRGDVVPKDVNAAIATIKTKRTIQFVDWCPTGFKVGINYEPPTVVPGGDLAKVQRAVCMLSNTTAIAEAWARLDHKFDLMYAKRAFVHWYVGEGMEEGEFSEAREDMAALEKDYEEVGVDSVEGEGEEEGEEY
Chain of Tubulin (Sus scrofa) (P02554 whole entry, looked up): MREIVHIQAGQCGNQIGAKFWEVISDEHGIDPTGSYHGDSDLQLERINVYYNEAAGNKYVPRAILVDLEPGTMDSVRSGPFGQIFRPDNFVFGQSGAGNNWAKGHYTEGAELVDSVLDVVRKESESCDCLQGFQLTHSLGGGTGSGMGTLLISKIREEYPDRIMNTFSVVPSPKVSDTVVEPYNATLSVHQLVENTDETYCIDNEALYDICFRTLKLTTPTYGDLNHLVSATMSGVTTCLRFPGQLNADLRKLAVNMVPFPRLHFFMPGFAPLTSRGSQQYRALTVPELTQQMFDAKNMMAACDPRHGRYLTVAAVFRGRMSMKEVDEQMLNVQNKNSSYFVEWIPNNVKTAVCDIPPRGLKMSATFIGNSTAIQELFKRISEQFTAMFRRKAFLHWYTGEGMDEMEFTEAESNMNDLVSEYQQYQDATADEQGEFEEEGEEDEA

SMILES	IC50 (K562) [nM]	IC50 (Tubulin) [nM]	further results
CC[C@]1(O)C[C@H]2CN(CCc3c([nH]c4ccccc34)[C@@](C(=O)OC)(c3cc4c(cc3OC)N(C=O)[C@H]3[C@@](O)(C(=O)OC)[C@H](OC(C)=O)[C@]5(CC)C=CCN6CC[C@]43[C@@H]65)C2)C1 [VINCRISTINE]			EC50 [1]: 2.4 nM
O=C(/C=C1\c2cccc(Cl)c2C(=O)c2cccc(Cl)c21)c1ccc([N+](=O)[O-])cc1	1900		
COc1ccc(C(=O)/C=C2\c3cccc(Cl)c3C(=O)c3cccc(Cl)c32)cc1	220	530	
COc1ccc(C=C2c3cccc(O)c3C(=O)c3c(O)cccc32)cc1O	1500	1930	
COc1cc2c(c(OC)c1OC)-c1ccc(OC)c(=O)cc1[C@@H](NC(C)=O)CC2 [COLCHICINE]			EC50 [1]: 14 nM; IC50 (RKO [2]): > 10000 nM; IC50 [3]: 30 nM
COc1ccc(C(=O)C=C2c3cccc(Cl)c3C(=O)c3c(Cl)cccc32)cc1	930	730	
COc1cc(CC2c3cccc(Cl)c3C(=O)c3cccc(Cl)c32)cc(OC)c1OC (configuration not stated)	> 15000		
COc1ccc(C=C2c3cccc(Cl)c3C(=O)c3c(Cl)cccc32)cc1	610	870	
COc1ccc(/C=C2\c3cccc(Cl)c3C(=O)c3cccc(Cl)c32)cc1	1400	690	
COc1ccc(C(=O)/C=C2\c3cccc(Cl)c3C(=O)c3cccc(Cl)c32)cc1OC	240	690	
COc1cc(C(=O)/C=C2\c3cccc(Cl)c3C(=O)c3cccc(Cl)c32)cc(OC)c1OC	230	360	Activity (PtK2): Active
COc1ccc(/C=C2/c3cccc(Cl)c3C(=O)c3cccc(Cl)c32)c(OC)c1OC	17300		
COc1ccc(CC2c3cccc(Cl)c3C(=O)c3cccc(Cl)c32)cc1O (configuration not stated)	5100		
COc1ccc(C=C2c3cccc(Cl)c3C(=O)c3c(Cl)cccc32)c(OC)c1O	100	360	IC50 (RKO [4]): 160 nM; IC50 (P388 [5]): 320 nM; IC50 [6]: 370 nM; IC50 (SF-268): 140 nM; IC50 (SK-OV-3): 160 nM; IC50 [7]: 170 nM; IC50 (NCI-H460): 170 nM; IC50 (L1210 [8]): 350 nM; IC50 [9]: 1170 nM; Ratio IC50 (Tubulin (Sus scrofa)): 4; EC50 [1]: 111 nM; IC50 (L1210 [10]): 230 nM; IC50 (RKO [2]): > 9000 nM; IC50 [3]: 130 nM; IC50 (P388 [11]): 460 nM; Activity [12]: inactive
CC(=O)Oc1ccc(C(=O)/C=C2\c3cccc(Cl)c3C(=O)c3cccc(Cl)c32)cc1	3400	410	
CC[C@]1(O)C[C@@H]2CN(CCc3c([nH]c4ccccc34)[C@@](C(=O)OC)(c3cc4c(cc3OC)N(C)[C@H]3[C@@](O)(C(N)=O)[C@H](O)[C@]5(CC)C=CCN6CC[C@]43[C@@H]65)C2)C1 [VINDESINE]			IC50 [6]: 1 nM; IC50 [7]: 260 nM; IC50 (L1210 [10]): > 5000 nM
COc1cc(C=C2c3cccc(Cl)c3C(=O)c3c(Cl)cccc32)ccc1O	5000	6800	
O=C1c2cccc(Cl)c2C(Cc2ccc([N+](=O)[O-])cc2)c2cccc(Cl)c21 (configuration not stated)	> 15000		
O=C(/C=C1\c2cccc(Cl)c2C(=O)c2cccc(Cl)c21)c1ccccc1	290	1700	
O=C1c2cccc(Cl)c2C(Cc2ccc(Cl)cc2)c2cccc(Cl)c21 (configuration not stated)	> 15000		
COc1ccc(C=C2c3cccc(Cl)c3C(=O)c3c(Cl)cccc32)c(O)c1	500	1600	
COc1ccc(C=C2c3cccc(O)c3C(=O)c3c(O)cccc32)cc1	2000	4000	
COc1ccc(CC2c3cccc(Cl)c3C(=O)c3c(Cl)cccc32)cc1	> 80000	> 2000	
COc1cccc(C(=O)/C=C2\c3cccc(Cl)c3C(=O)c3cccc(Cl)c32)c1	250	690	
O=C1c2c(O)cccc2C(=Cc2ccc(O)c(O)c2)c2cccc(O)c21	2600		
COc1cc(/C=C2\c3cccc(Cl)c3C(=O)c3cccc(Cl)c32)cc(OC)c1OC	18000		

SMILES	IC50 (K562) [nM]	IC50 (Tubulin) [nM]	further results
O=C1c2cccc(Cl)c2/C(=C\c2ccccc2)c2cccc(Cl)c21	> 30000		
COc1cccc(C=C2c3cccc(Cl)c3C(=O)c3c(Cl)cccc32)c1O	5000	> 2000	
COC(=O)Nc1nc2cc(C(=O)c3cccs3)ccc2[nH]1 [NOCODAZOLE]			IC50 [6]: 40 nM; IC50 [7]: 70 nM; EC50 [1]: 91 nM; IC50 (RKO [2]): > 10000 nM; IC50 [3]: 140 nM
COc1cc(C=C2c3cccc(O)c3C(=O)c3c(O)cccc32)cc(OC)c1OC	2600	> 10000	
O=C1c2cccc(Cl)c2/C(=C/c2ccccc2)c2cccc(Cl)c21	> 30000		
O=C(/C=C1\c2cccc(Cl)c2C(=O)c2cccc(Cl)c21)c1ccc(Cl)cc1	1600		
O=C1c2cccc(Cl)c2C(Cc2ccccc2)c2cccc(Cl)c21 (configuration not stated)	> 15000		
COc1cc(C=C2c3cccc(Cl)c3C(=O)c3c(Cl)cccc32)cc(OC)c1OC	10000	> 10000	
COc1ccc(/C=C2\c3cccc(Cl)c3C(=O)c3cccc(Cl)c32)cc1O	210	420	
CC(=O)O[C@H]1C(=O)[C@@]2(C)[C@H]([C@H](OC(=O)c3ccccc3)[C@]3(O)C[C@H](OC(=O)[C@H](O)[C@@H](NC(=O)c4ccccc4)c4ccccc4)C(C)=C1C3(C)C)[C@]1(OC(C)=O)CO[C@@H]1C[C@@H]2O [PACLITAXEL]			IC50 [7]: 400 nM; EC50 [1]: 49 nM; IC50 (L1210 [10]): > 5000 nM; IC50 (RKO [2]): > 3000 nM; IC50 [3]: 10 nM; IC50 (P388 [11]): > 5000 nM
O=C1c2c(O)cccc2C(=Cc2ccc(C(F)(F)F)cc2)c2cccc(O)c21	1700		
COc1cc(/C=C2/c3cccc(Cl)c3C(=O)c3cccc(Cl)c32)ccc1O	270	380	
COc1cc(C=C2c3cccc(Cl)c3C(=O)c3c(Cl)cccc32)cc(OC)c1O	2000	1660	
COc1ccc(CC2c3cccc(Cl)c3C(=O)c3cccc(Cl)c32)cc1 (configuration not stated)	13000		
COc1cc(C(=O)C=C2c3cccc(Cl)c3C(=O)c3c(Cl)cccc32)cc(OC)c1OC	720	1620	
O=C1c2c(O)cccc2C(=Cc2ccc([N+](=O)[O-])cc2)c2cccc(O)c21	1700	> 10000	
COc1ccc(C=C2c3cccc(O)c3C(=O)c3c(O)cccc32)cc1OC	2000	> 10000	
COc1ccc(C=C2c3cccc(OC)c3C(=O)c3c(OC)cccc32)cc1	1420	> 2000	
O=C1c2c(O)cccc2C(=Cc2ccc(O)cc2)c2cccc(O)c21	2000		
COc1ccc(CC2c3cccc(Cl)c3C(=O)c3c(Cl)cccc32)cc1O	1600	1200	
COc1ccc(C=C2c3cccc(Cl)c3C(=O)c3c(Cl)cccc32)cc1O	250	360	IC50 (RKO [4]): 160 nM; IC50 (P388 [5]): 390 nM; IC50 [6]: 630 nM; IC50 (SF-268): 170 nM; IC50 (SK-OV-3): 140 nM; IC50 [7]: 290 nM; IC50 (NCI-H460): 210 nM; IC50 (L1210 [8]): 510 nM; IC50 [9]: 1380 nM; Ratio IC50 (Tubulin (Sus scrofa)): 4; EC50 [1]: 118 nM; IC50 (L1210 [10]): 300 nM; IC50 (RKO [2]): > 9000 nM; IC50 [3]: 140 nM; IC50 (P388 [11]): 640 nM; Activity [12]: inactive
O=C1c2c(O)cccc2C(=Cc2ccccc2)c2cccc(O)c21	2300	> 10000	
COc1cccc(CC2c3cccc(Cl)c3C(=O)c3cccc(Cl)c32)c1 (configuration not stated)	> 15000		
O=C(/C=C1\c2cccc(Cl)c2C(=O)c2cccc(Cl)c21)c1ccc(Br)cc1	1700	510	
COc1ccc(/C=C2/c3cccc(Cl)c3C(=O)c3cccc(Cl)c32)cc1	1300	520	
